The numbers were not newly measured in publication PMC7504092, “Synthesis and Antiplasmodial Evaluation of 4-Carboxamido- and 4-Alkoxy-2-Trichloromethyl Quinazolines” (Molecules, 2020), which cites them from elsewhere.

This data set relates to W2 P. falciparum. On the set-up: method as in PMID 21741131. The settings on record: W2 strain; cited from earlier work.

The structures appear in SMILES notation.

In the case of `Oc1nc(C(Cl)(Cl)Cl)nc2ccccc12` [2-(trichloromethyl)quinazolin-4-ol], the “activity against W2 P. falciparum (in words)” value is reported as “not active”.
